Assay results reported in US20230146675A1, “PYRIMIDO[5,4-d]PYRIMIDINE DERIVATIVES AS ENT INHIBITORS FOR THE TREATMENT OF CANCERS, AND COMBINATION THEREOF WITH ADENOSINE RECEPTOR ANTAGONISTS” (ITEOS BELGIUM SA, priority 2020, published 2023).
Where two headings read alike, the source gives them in different places.

Biological target: T1, Phosphodiesterase-6 (Bos taurus, UniProt P11541+P23439)
T1 construct: using an enzyme isolated from bovine retinas at Eurofins-Cerep; tissue Eurofins-Cerep; host or cells: bovine retinas
T1 sequence (P11541 2-856 limits assumed): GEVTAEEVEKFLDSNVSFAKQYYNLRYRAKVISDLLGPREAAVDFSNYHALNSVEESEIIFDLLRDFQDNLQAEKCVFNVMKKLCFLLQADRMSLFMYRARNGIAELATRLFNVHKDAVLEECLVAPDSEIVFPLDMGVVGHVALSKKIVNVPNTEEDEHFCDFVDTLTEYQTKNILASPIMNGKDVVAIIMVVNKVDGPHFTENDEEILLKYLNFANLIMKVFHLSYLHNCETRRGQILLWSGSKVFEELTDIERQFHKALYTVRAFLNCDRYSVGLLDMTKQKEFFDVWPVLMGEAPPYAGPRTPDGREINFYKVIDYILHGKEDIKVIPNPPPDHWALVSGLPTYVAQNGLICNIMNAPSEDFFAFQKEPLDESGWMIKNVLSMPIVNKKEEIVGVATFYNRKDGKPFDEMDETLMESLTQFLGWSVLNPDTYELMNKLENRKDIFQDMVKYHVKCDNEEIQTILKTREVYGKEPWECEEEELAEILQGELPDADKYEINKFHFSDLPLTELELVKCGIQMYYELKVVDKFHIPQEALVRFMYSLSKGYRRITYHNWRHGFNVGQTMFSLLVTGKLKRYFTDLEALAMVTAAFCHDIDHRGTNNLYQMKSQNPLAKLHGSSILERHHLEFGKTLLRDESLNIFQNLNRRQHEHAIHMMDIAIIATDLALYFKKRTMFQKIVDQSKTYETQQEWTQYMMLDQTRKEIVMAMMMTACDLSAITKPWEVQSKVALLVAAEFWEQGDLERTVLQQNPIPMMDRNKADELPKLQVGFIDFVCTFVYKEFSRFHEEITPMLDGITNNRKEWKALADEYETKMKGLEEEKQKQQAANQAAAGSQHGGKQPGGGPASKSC
T1 sequence (P23439 2-850 limits assumed): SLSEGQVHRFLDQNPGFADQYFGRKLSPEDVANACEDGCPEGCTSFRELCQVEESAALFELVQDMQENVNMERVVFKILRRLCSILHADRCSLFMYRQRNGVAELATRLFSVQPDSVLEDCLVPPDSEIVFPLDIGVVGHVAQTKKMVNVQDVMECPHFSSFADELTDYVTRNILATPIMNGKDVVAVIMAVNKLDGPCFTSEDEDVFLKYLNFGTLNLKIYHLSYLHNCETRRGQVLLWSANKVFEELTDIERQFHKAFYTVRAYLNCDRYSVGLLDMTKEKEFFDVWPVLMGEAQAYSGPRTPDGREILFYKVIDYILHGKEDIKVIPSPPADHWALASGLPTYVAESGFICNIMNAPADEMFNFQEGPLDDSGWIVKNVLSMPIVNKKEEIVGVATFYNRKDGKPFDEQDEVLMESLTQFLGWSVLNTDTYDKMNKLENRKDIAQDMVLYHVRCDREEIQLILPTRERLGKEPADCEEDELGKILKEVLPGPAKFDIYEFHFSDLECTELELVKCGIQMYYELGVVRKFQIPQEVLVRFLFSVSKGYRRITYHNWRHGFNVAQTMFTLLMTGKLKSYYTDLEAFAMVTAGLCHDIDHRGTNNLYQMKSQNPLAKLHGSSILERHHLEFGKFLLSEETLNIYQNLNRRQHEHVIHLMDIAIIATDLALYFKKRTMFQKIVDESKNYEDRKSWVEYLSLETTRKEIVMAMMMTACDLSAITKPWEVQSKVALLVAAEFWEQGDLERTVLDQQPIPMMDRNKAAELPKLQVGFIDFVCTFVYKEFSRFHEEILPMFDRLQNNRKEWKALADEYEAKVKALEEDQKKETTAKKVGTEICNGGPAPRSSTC
Assay: PDE6 (non-selective) assay
Format: biochemical, bovine
Experimental: The test compound (compound 72), reference compound or water (control) were added to a buffer containing 40 mM Tris/HCl (pH 7.4) and 8 mM MgCl2, 450 nM cAMP and 0.0125 μCi [3H]cAMP. Thereafter, the reaction was initiated by addition of the enzyme (about 1.5 U) and the mixture was incubated for 20 min at 22° C. For basal control measurements, the enzyme was omitted from the reaction mixture. Following incubation SPA beads were added. After 30 min at 22° C. under shaking, the amount of [3H]5′AMP was quantified with a scintillation counter (Topcount, Packard). The results were expressed as a percent inhibition of the control enzyme activity. The standard inhibitory reference compound was Ro 20-1724, which was tested in each experiment at several concentrations to obtain an inhibition curve from which its IC50 value was calculated. • Phosphodiesterase-6 quantified by measuring the formation of 5′GMP from cGMP using an enzyme isolated from bovine retinas at Eurofins-Cerep
The test compound (compound 72), reference compound or water (control) were added to a buffer containing 40 mM Tris/HCl (pH 7.8), 3 mM MgCl2, 1.4 mM DTT, 0.21% BSA, 200 mM NH4Cl, 2 μM cGMP and 0.05 μCi [3H]cGMP. […] After 20 min at 22° C. under shaking, the amount of [3H]5′GMP was quantified with a scintillation counter (Topcount, Packard). The results were expressed as a percent inhibition of the control enzyme activity. […]

- IC50 (read-out: PDE6 (non-selective) IC50): 1 to 10 µM
- IC50 (read-out: PDE6 IC50): 3.23 µM
Structure (SMILES): COCCN(CCOC)c1nc(N2CCN(C)C(=O)C2)c2nc(N(CCOC)CCOC)nc(N3CCC(OC)CC3)c2n1 [Compound 72, 4-(2,6-bis(bis(2-methoxyethyl)amino)-8-(4-methoxypiperidin-1-yl)pyrimido[5,4-d]pyrimidin-4-yl)-1-methylpiperazin-2-one]
